Earlier results, collected in patent US9193983B2, “Assays for mutagenesis detection” (The Regents of the University of California, priority 2007, dated 2015).

Assays:
Saccharomyces cerevisiae [1] = conditions: cited from earlier work
Saccharomyces cerevisiae [2] = conditions: Angeli's salt as HNO donor; cited from earlier work

SMILES: N=O [HNO]
- induction of DNA deletions and recombination (Saccharomyces cerevisiae [1]; Angeli's salt as HNO donor): potent inducer of DNA deletions and recombination
- genotoxicity (Saccharomyces cerevisiae [1]; under aerobic and anaerobic conditions): observed
- induction of point mutations (Saccharomyces cerevisiae [2]): negative
